The text below walks through data of patent publication US9221795B2, “Phosphatidylinositol 3-kinase inhibitors” (Gilead Sciences, Inc., priority 2013, dated 2015).

The target of one data set is PI3Kδ (Homo sapiens (Human), UniProt O00329). In words: Enzymatic activity of PI3K isoforms, TR-FRET assay (PI3Kδ). The data set is classed as biochemical. The conditions noted are these: 2× Km ATP, geometric mean if more than one value. The procedure, abridged:
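Recombinant heterodimeric PI3Kβ or PI3Kδ (25-50 pM) was run with 2 μM PIP2 and 2× Km ATP (75-500 μM) at pH 7.4, for 30 min at 25° C. PIP3 formation was detected by TR-FRET displacement of labeled PIP3 from Eu-GRP-1. IC50 values in nM come from four-parameter fits, as geometric means.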

The test system of another data set is basophils. In words: Basophil activation in human whole blood (Flow2 CAST kit, CD63 flow cytometry). The class given is cell-based. On the procedure: Effect on basophil activation was measured in human whole blood using the Flow2 CAST® kit (Buhlmann Laboratories AG, Baselstrasse, Switzerland) following the protocol provided by the manufacturer with minor modifications. Human whole blood was collected into K2-EDTA venipuncture tubes. Whole blood samples were treated with either DMSO (0.3% final) or a serial dilution of compounds in DMSO for 60 minutes at 37° C. Basophils were then activated either with anti-FcεRI mAb or with fMLP. To activate basophils using the anti-FcεRI mAb; 50 μL of whole blood was mixed with 110 μL of stimulation buffer (B-BAT-STB) and 20 μl of anti-FcεRI (B-BAT-STCON). To activate basophils with fMLP; 50 μL of whole blood was mixed with 80 μL of stimulation buffer (B-BAT-STB) and 50 μL of fMLP (B-CCR-FMLP). Stimulation buffer was used as a negative control. 20 μL of the staining reagent (combination of anti-human CD63-FITC and anti-human CCR3-PE mAbs) was then added to each tube. The tubes were mixed gently and incubated for 25 minutes at 37° C. Subsequently, erythrocytes were lysed and fixed by the addition of 2 mL of lysing solution (B-BAT-LYR) for 10 minutes at room temperature. Cells were pelleted by centrifugation at 1200 rpm for 10 minutes at room temperature in a swing-out rotor. Supernatant was aspirated and cell pellet resuspended in 400 μL of wash buffer. Flow cytometric analysis of the basophil activation was performed on a FC500MPL flow cytometer (Beckman Coulter Inc., Fullerton, Calif.). CCR3-staining and side scatter were applied to gate at least 200 basophils that expressed a high density of CCR3. The percent CD63 positive cells within the gated basophil population were determined in different treatment groups and normalized to the vehicle control (0.3% DMSO) with anti-FcεRI mAb of fMLP stimulus as 100%. Final compound concentration was adjusted to correct for dilution effect of added reagents. The EC50 values were calculated from the analysis of the dose-response curves to a four-parameter equation.
On the technique in general: Flow cytometry measures light scatter and fluorescence of single cells or particles in a stream.

Data set [1] is described as follows: Hepatocyte stability (parent drug disappearance in cryopreserved hepatocytes). The data set is classed as in vitro ADME, human. The following applies: human, human hepatocytes. As to the method: This assay was used to evaluate the metabolic stability of test articles (TA) following incubation in cryopreserved hepatocytes by monitoring parent drug disappearance via LC/MC. The TA was incubated with 1 million hepatocytes/mL at 2 μM substrate in duplicate. The incubation was carried out at 37° C. with 5% CO2 and saturating humidity. Samples were taken at 0, 1, 2, and 4 hours to monitor the disappearance of TA and a half-life (t1/2) was determined. Table 3 below summarizes the human hepatocyte t1/2 values (hours) collected in the Example.

Where [2] appears, read: class symbol, human whole blood, basophils activated with anti-FcεRI mAb or fMLP, percent CD63 positive cells.
Where [3] appears, read: human whole blood, basophils activated with anti-FcεRI mAb or fMLP, percent CD63 positive cells, geometric mean.
The mark [4] stands for this setting: cryopreserved human hepatocytes, class symbol, 2 μM substrate, 37° C.
Setting [5] is: cryopreserved human hepatocytes, 2 μM substrate, 37° C., Table 3.
Where [6] appears, read: Homo sapiens, class symbol, human whole blood, basophils activated with anti-FcεRI mAb or fMLP, percent CD63 positive cells.
[7] abbreviates: Homo sapiens, human whole blood, basophils activated with anti-FcεRI mAb or fMLP, percent CD63 positive cells, geometric mean.
Where [8] appears, read: Homo sapiens, basophil activation in human whole blood, comparison Table 4.
The mark [9] stands for this setting: cryopreserved hepatocytes, comparison Table 4.

Sequence of PI3Kδ (O00329 whole entry, canonical isoform): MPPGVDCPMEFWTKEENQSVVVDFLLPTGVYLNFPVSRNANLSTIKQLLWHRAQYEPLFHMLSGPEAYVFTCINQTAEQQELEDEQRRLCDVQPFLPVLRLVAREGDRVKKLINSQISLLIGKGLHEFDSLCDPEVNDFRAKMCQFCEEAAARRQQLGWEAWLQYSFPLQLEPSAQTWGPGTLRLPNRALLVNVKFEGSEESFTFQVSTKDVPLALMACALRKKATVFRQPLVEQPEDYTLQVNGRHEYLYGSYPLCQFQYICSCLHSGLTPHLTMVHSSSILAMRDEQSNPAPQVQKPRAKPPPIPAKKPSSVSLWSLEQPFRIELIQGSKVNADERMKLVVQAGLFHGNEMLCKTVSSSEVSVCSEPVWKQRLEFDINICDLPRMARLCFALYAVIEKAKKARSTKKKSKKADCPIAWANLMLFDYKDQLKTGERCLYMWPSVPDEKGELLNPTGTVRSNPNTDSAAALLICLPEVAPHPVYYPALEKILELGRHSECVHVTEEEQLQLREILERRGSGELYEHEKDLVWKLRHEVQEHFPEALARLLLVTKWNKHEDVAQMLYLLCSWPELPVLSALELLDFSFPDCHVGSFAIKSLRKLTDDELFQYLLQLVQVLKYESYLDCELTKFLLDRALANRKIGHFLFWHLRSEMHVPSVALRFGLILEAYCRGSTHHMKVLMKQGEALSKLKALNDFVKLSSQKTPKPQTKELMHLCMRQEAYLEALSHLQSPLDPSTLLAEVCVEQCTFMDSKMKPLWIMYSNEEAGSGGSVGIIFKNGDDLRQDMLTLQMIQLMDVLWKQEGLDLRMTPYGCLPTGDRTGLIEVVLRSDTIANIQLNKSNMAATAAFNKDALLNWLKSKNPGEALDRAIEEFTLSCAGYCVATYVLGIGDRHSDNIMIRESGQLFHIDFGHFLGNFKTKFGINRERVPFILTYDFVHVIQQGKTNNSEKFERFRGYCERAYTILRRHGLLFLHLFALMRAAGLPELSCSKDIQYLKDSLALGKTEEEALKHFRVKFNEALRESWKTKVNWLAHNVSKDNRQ
Sequence of PI3Kδ (P27986 whole entry partner, canonical isoform): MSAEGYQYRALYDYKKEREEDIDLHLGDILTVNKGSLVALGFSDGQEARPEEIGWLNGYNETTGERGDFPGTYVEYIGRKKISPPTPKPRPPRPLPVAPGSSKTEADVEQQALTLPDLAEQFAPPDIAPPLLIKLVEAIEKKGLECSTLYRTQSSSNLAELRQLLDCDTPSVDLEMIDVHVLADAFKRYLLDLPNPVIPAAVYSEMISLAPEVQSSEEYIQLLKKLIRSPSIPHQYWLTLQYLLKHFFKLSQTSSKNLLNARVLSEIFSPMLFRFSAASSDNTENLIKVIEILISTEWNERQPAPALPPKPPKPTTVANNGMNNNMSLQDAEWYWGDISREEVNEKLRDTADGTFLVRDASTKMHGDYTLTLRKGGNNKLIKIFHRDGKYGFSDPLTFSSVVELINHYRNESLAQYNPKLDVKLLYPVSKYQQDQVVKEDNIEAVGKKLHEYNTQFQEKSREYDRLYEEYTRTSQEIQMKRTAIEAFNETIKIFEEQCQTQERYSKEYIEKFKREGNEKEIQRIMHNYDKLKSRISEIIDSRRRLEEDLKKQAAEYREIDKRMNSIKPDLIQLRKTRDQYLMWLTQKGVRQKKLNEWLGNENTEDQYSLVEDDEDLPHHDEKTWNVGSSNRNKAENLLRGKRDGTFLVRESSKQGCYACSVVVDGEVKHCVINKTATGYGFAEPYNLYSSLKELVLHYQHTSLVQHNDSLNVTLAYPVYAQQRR

The term IC50 denotes the concentration needed to halve the response being measured. Lower therefore signals greater potency. By EC50 is commonly meant the concentration that produces a half-maximal response. Usually half-life stands for the time in which the quantity being followed falls by half. On PI3Kδ, `Cc1ncccc1-n1c([C@H](C)Nc2nc(N)nc(N)c2C#N)nc2cccc(Cl)c2c1=O` (atropisomer, axis not shown) [Compound 39, (S)-2,4-diamino-6-(1-(5-chloro-3-(2-methylpyridin-3-yl)-4-oxo-3,4-dihydroquinazolin-2-yl)ethylamino)pyrimidine-5-carbonitrile] had an IC50 of 1 nM. Besides, the values for the EC50 in the data set with basophils (setting [2]) and in the data set on basophils (setting [3]) were 1 to 10 nM and 2 nM, respectively. The half-life at 2 μM is 3 to 6 h in data set [1] (setting [4]) and 3 h in data set [1] (setting [5]).

For `Cc1ccncc1-n1c([C@H](C)Nc2nc(N)nc(N)c2C#N)nc2cccc(Cl)c2c1=O` (atropisomer, axis not shown) [Compound 41, (S)-2,4-diamino-6-(1-(5-chloro-3-(4-methylpyridin-3-yl)-4-oxo-3,4-dihydroquinazolin-2-yl)ethylamino)pyrimidine-5-carbonitrile], at PI3Kδ, the IC50 stood at 0.4 nM. The concentration giving a half-maximal response (EC50) in the data set with basophils (setting [2]) is 1 to 10 nM; in the data set with basophils (setting [3]) it was 4 nM. Also, the half-life at 2 μM in data set [1] (setting [4]) and in data set [1] (setting [5]) was greater than 10 h in each case.

Regarding `Cc1ncc(F)cc1-n1c([C@H](C)Nc2nc(N)nc(N)c2C#N)nc2cccc(Cl)c2c1=O` (atropisomer, axis not shown) [Compound 45, (S)-2,4-diamino-6-(1-(5-chloro-3-(5-fluoro-2-methylpyridin-3-yl)-4-oxo-3,4-dihydroquinazolin-2-yl)ethylamino)pyrimidine-5-carbonitrile], the IC50 at PI3Kδ was found to be 6 nM. Besides, the EC50 in the data set on basophils (setting [6]) is 1 to 10 nM; with basophils (setting [7]), 7 nM. The half-life at 2 μM in data set [1] (setting [4]) is 3 to 6 h; in data set [1] (setting [5]) it was 4 h.

Regarding `Cc1c(F)cncc1-n1c([C@H](C)Nc2nc(N)nc(N)c2C#N)nc2cccc(Cl)c2c1=O` (atropisomer, axis not shown) [Compound 46, (S)-2,4-diamino-6-(1-(5-chloro-3-(5-fluoro-4-methylpyridin-3-yl)-4-oxo-3,4-dihydroquinazolin-2-yl)ethylamino)pyrimidine-5-carbonitrile], the IC50 on PI3Kδ is 38 nM. The results for the half-life at 2 μM in data set [1] (setting [4]) and in data set [1] (setting [5]) were 6 to 10 h and 8 h, respectively.

At PI3Kδ, `C[C@H](Nc1nc(N)nc(N)c1C#N)c1nc2cccc(Cl)c2c(=O)n1-c1cccnc1` [Compound 1, (S)-2,4-diamino-6-((1-(5-chloro-4-oxo-3-(pyridin-3-yl)-3,4-dihydroquinazolin-2-yl)ethyl)amino)pyrimidine-5-carbonitrile] yielded an IC50 of 0.6 nM. Further, the EC50 was less than 1 nM in the data set with basophils (setting [8]), less than 1 nM with basophils (setting [6]) and 0.9 nM with basophils (setting [7]). Further, the half-life at 2 μM in data set [1] (setting [4]) is greater than 10 h; in data set [1] (setting [5]), greater than 10 h; in data set [1] (cryopreserved human hepatocytes, comparison Table 4) it was greater than 10 h.

In the case of `CC[C@H](Nc1nc(N)nc(N)c1C#N)c1nc2cccc(Cl)c2c(=O)n1-c1cccnc1` [Compound 2, (S)-2,4-diamino-6-(1-(5-chloro-4-oxo-3-(pyridin-3-yl)-3,4-dihydroquinazolin-2-yl)propylamino)pyrimidine-5-carbonitrile], the IC50 on PI3Kδ was determined as 2 nM. In addition, the EC50 was 1 to 10 nM with basophils (setting [6]) and 2 nM in the data set with basophils (setting [7]). Further, the half-life at 2 μM in data set [1] (setting [4]) and in data set [1] (setting [5]) was greater than 10 h throughout.

`N#Cc1c(N)nc(N)nc1N[C@H](c1nc2cccc(Cl)c2c(=O)n1-c1cccnc1)C1CC1` [Compound 3, (S)-2,4-diamino-6-((5-chloro-4-oxo-3-(pyridin-3-yl)-3,4-dihydroquinazolin-2-yl)(cyclopropyl)methylamino)pyrimidine-5-carbonitrile] gave an IC50 against PI3Kδ of 0.6 nM. Moreover, the figures for the EC50 in the data set with basophils (setting [6]) and with basophils (setting [7]) were 1 to 10 nM and 2 nM, respectively. The half-life at 2 μM in data set [1] (setting [4]) and in data set [1] (setting [5]) was greater than 10 h each time.

In turn, `C[C@H](Nc1nc(N)nc(N)c1C#N)c1nc2ccc(F)cc2c(=O)n1-c1cccnc1` [Compound 5, (S)-2,4-diamino-6-(1-(6-fluoro-4-oxo-3-(pyridin-3-yl)-3,4-dihydroquinazolin-2-yl)ethylamino)pyrimidine-5-carbonitrile] displayed an IC50 against PI3Kδ of 14 nM. Further, the values for the EC50 in the data set on basophils (setting [6]) and in the data set with basophils (setting [7]) were 1 to 10 nM and 2 nM, respectively. Moreover, the half-life at 2 μM in data set [1] (setting [4]) and in data set [1] (setting [5]) was greater than 10 h in each case.

As to `C[C@H](Nc1nc(N)nc(N)c1C#N)c1nc2cccc(C(F)(F)F)c2c(=O)n1-c1cccnc1` [Compound 9, (S)-2,4-diamino-6-(1-(4-oxo-3-(pyridin-3-yl)-5-(trifluoromethyl)-3,4-dihydroquinazolin-2-yl)ethylamino)pyrimidine-5-carbonitrile], at PI3Kδ, it took 2 nM to reach half-maximal inhibition (IC50). Also, the EC50 was 1 to 10 nM in the data set on basophils (setting [6]) and 3 nM with basophils (setting [7]). For the same compound, the half-life at 2 μM in data set [1] (setting [4]) and in data set [1] (setting [5]) was greater than 10 h in each case.

`Cc1cccc2nc([C@H](C)Nc3nc(N)nc(N)c3C#N)n(-c3cncc(F)c3)c(=O)c12` [Compound 11, (S)-2,4-diamino-6-(1-(3-(5-fluoropyridin-3-yl)-5-methyl-4-oxo-3,4-dihydroquinazolin-2-yl)ethylamino)pyrimidine-5-carbonitrile] came in with an IC50 against PI3Kδ of 0.8 nM. Moreover, the EC50 with basophils (setting [6]) was less than 1 nM; with basophils (setting [7]), 0.5 nM. For the same compound, the results for the half-life at 2 μM in data set [1] (setting [4]) and in data set [1] (setting [5]) were 3 to 6 h and 5 h, respectively.

In turn, `C[C@H](Nc1nc(N)nc(N)c1C#N)c1nc2cccc(Cl)c2c(=O)n1-c1cncc(F)c1` [Compound 12, (S)-2,4-diamino-6-(1-(5-chloro-3-(5-fluoropyridin-3-yl)-4-oxo-3,4-dihydroquinazolin-2-yl)ethylamino)pyrimidine-5-carbonitrile] came in with a concentration for half-maximal inhibition (IC50) at PI3Kδ of 2 nM. In addition, the half-maximal effective concentration (EC50) with basophils (setting [6]) was 1 to 10 nM; in the data set on basophils (setting [7]) it was 1 nM. Besides, the half-life at 2 μM in data set [1] (setting [4]) and in data set [1] (setting [5]) was greater than 10 h throughout.

On to `COc1cncc(-n2c([C@H](C)Nc3nc(N)nc(N)c3C#N)nc3cccc(Cl)c3c2=O)c1` [Compound 14, (S)-2,4-diamino-6-(1-(5-chloro-3-(5-methoxypyridin-3-yl)-4-oxo-3,4-dihydroquinazolin-2-yl)ethylamino)pyrimidine-5-carbonitrile], for which the IC50 against PI3Kδ stood at 4 nM. The concentration for a half-maximal effect (EC50) in the data set with basophils (setting [6]) is 1 to 10 nM; with basophils (setting [7]), 3 nM. The half-life at 2 μM was 6 to 10 h in data set [1] (setting [4]) and 8 h in data set [1] (setting [5]).

`N#Cc1c(N)nc(N)nc1N[C@H](c1nc2ccc(F)c(Cl)c2c(=O)n1-c1cccnc1)C1CC1` [Compound 37, (S)-2,4-diamino-6-((5-chloro-6-fluoro-4-oxo-3-(pyridin-3-yl)-3,4-dihydroquinazolin-2-yl)(cyclopropyl)methylamino)pyrimidine-5-carbonitrile] registered an IC50 on PI3Kδ of 5 nM. The EC50 is 10 to 50 nM with basophils (setting [6]) and 16 nM in the data set on basophils (setting [7]).

As for `C[C@H](Nc1ncnc2[nH]cnc12)c1nc2cccc(Cl)c2c(=O)n1-c1ccccc1` [Compound X, reference compound], the concentration giving a half-maximal response (EC50) in the data set with basophils (setting [8]) is greater than 5 nM. Also, the half-life at 2 μM in data set [1] (setting [9]) is less than 2 h.

Regarding `C[C@H](Nc1ncnc(N)c1C#N)c1nc2cccc(Cl)c2c(=O)n1-c1ccccc1` [Compound Y, reference compound], the EC50 with basophils (setting [8]) is greater than 10 nM. In data set [1] (setting [9]), the half-life at 2 μM was less than 2 h.

`C[C@H](Nc1nc(N)nc(N)c1C#N)c1nc2cccc(Cl)c2c(=O)n1-c1ccccc1` [Compound Z, reference compound]: the EC50 in the data set on basophils (basophil activation in human whole blood, comparison Table 4) is less than 1 nM. For the same compound, in data set [1] (setting [9]), the half-life at 2 μM was less than 5 h.
